For one compound, resistivity in solution results are on record in patent US20030144243A1, “Combination of a crystalline drug form and atiotropium salt” (priority 2001, published 2003).

Each structure is given as a SMILES string.

A short description of the data set: resistivity in solution, crystalline versus amorphous form. The note with it: compared with the amorphous form at an equivalent concentration in solution. The data set is classed as physicochemical.

Take `CCNC(=O)[C@H]1O[C@@H](n2cnc3c(NCC(c4ccccc4)c4ccccc4)nc(C(=O)NCCNC(=O)NC4CCN(c5ccccn5)CC4)nc32)[C@H](O)[C@@H]1O` [crystalline form, 6-[(2,2-diphenylethyl)amino]-9-(N-ethyl-β-D-ribofuranosyluronamide)-N-(2-{N′-[1-(2-pyridyl)-4-piperidyl]ureido}ethyl)-9H-purine-2-carboxamide]: the resistivity in solution entry is “higher resistivity than the amorphous form”.
